According to PubChem BioAssay (NCI):
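The compound was tested at five concentrations on cells cultured in 96-well plates, with a 48-hour exposure period. TGI denotes the concentration required for complete inhibition of growth.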

Assays:
Test in all cases: NCI tumour cell line growth inhibition, 48 h
[1] = system: IGROV1 ovarian
[2] = system: 786-0 renal
[3] = system: OVCAR-8 ovarian
[4] = system: HT29 colon
[5] = system: UO-31 renal
[6] = system: A549 NSCLC
[7] = system: NCI-H23 lung
[8] = system: OVCAR-5 ovarian
[9] = system: LOX IMVI melanoma
[10] = system: UACC-257 melanoma
[11] = system: TK-10 renal
[12] = system: MDA-MB-231 breast
[13] = system: SF-539 CNS
[14] = system: NCI-H226 lung
[15] = system: ACHN renal
[16] = system: COLO 205 colon
[17] = system: NCI-H460 lung
[18] = system: CCRF-CEM leukemia
[19] = system: SK-MEL-5 melanoma
[20] = system: SF-295 CNS
[21] = system: BT-549 breast
[22] = system: MOLT-4 leukemia
[23] = system: RPMI-8226 leukemia
[24] = system: HS 578T breast
[25] = system: CAKI-1 renal
[26] = system: EKVX NSCLC
[27] = system: HL-60(TB) leukemia
[28] = system: SR leukemia
[29] = system: SN12C renal
[30] = system: SK-MEL-28 melanoma
[31] = system: HCT-15 colon
[32] = system: KM12 colon
[33] = system: HCC-2998 colon
[34] = system: PC-3 prostate
[35] = system: HOP-92 NSCLC
[36] = system: SNB-19 CNS
[37] = system: DU-145 prostate
[38] = system: OVCAR-4 ovarian
[39] = system: MDA-MB-435
[40] = system: A498 renal
[41] = system: NCI/ADR-RES ovarian
[42] = system: HCT-116 colon
[43] = system: T-47D breast
[44] = system: SK-MEL-2 melanoma
[45] = system: U251 CNS
[46] = system: SW-620 colon
[47] = system: SF-268 CNS
[48] = system: HOP-62 NSCLC
[49] = system: MDA-N
[50] = system: M14 melanoma
[51] = system: OVCAR-3 ovarian
[52] = system: K-562 leukemia
[53] = system: SK-OV-3 ovarian
[54] = system: NCI-H522 lung
[55] = system: MCF7 breast
[56] = system: UACC-62 melanoma
[57] = system: SNB-75 CNS

`COc1cccc(CC(=O)N2CCN(CCCc3ccccc3)CC2)c1` showed a TGI [1] of over 100 µM, a TGI [2] of over 100 µM and a TGI [3] of over 100 µM. The TGI [4] was over 100 µM, the TGI [5] was over 100 µM and the TGI [6] was over 100 µM. The TGI [7] was over 100 µM, the TGI [8] was over 100 µM and the TGI [9] was over 100 µM. For the same compound, the TGI [10] was over 100 µM, the TGI [11] was over 100 µM and the TGI [12] was over 100 µM. It also gave a TGI [13] of over 100 µM, a TGI [14] of over 100 µM and a TGI [15] of over 100 µM. For the same compound, the TGI [16] was over 100 µM, the TGI [17] was over 100 µM and the TGI [18] was over 100 µM. For the same compound, the TGI [19] was 77.1 µM, the TGI [20] was over 100 µM and the TGI [21] was over 100 µM. For the same compound, the TGI [22] was over 100 µM, the TGI [23] was over 100 µM and the TGI [24] was over 100 µM. It also gave a TGI [25] of over 100 µM, a TGI [26] of over 100 µM and a TGI [27] of over 100 µM. The TGI [28] was over 100 µM, the TGI [29] was over 100 µM and the TGI [30] was over 100 µM. It also gave a TGI [31] of over 100 µM, a TGI [32] of over 100 µM and a TGI [33] of over 100 µM. The TGI [34] was over 100 µM, the TGI [35] was over 100 µM and the TGI [36] was over 100 µM. For the same compound, the TGI [37] was over 100 µM, the TGI [38] was over 100 µM and the TGI [39] was over 100 µM. For the same compound, the TGI [40] was over 100 µM, the TGI [41] was 94.3 µM and the TGI [42] was over 100 µM. The TGI [43] was 89.9 µM, the TGI [44] was over 100 µM and the TGI [45] was over 100 µM. For the same compound, the TGI [46] was over 100 µM, the TGI [47] was over 100 µM and the TGI [48] was over 100 µM. For the same compound, the TGI [49] was over 100 µM, the TGI [50] was over 100 µM and the TGI [51] was over 100 µM. For the same compound, the TGI [52] was over 100 µM, the TGI [53] was over 100 µM and the TGI [54] was over 100 µM. It also gave a TGI [55] of over 100 µM and a TGI [56] of over 100 µM.

Work on `CCOP(=O)(OCC)/C(C#N)=C/c1ccc(-c2cc(C(F)(F)F)cc(C(F)(F)F)c2)o1` yielded a TGI [2] of 25.5 µM, a TGI [3] of 32 µM and a TGI [4] of 21.9 µM. It also gave a TGI [5] of 34.9 µM, a TGI [6] of 31.3 µM and a TGI [7] of 31.1 µM. For the same compound, the TGI [8] was 26.1 µM, the TGI [9] was 15.9 µM and the TGI [10] was 30.6 µM. For the same compound, the TGI [11] was 35.5 µM, the TGI [12] was 26.8 µM and the TGI [13] was 35.3 µM. The TGI [57] was 27.9 µM, the TGI [14] was 32.6 µM and the TGI [15] was 50.2 µM. For the same compound, the TGI [16] was 27.4 µM, the TGI [17] was 19.1 µM and the TGI [18] was 34.3 µM. The TGI [20] was 11.8 µM, the TGI [21] was 44.9 µM and the TGI [22] was 21.8 µM. The TGI [23] was 23.5 µM, the TGI [24] was over 100 µM and the TGI [26] was 35 µM. It also gave a TGI [27] of 14.3 µM, a TGI [28] of 26.8 µM and a TGI [29] of 29.1 µM. For the same compound, the TGI [30] was 33 µM, the TGI [31] was 20.7 µM and the TGI [33] was 22.2 µM. It also gave a TGI [34] of 24 µM, a TGI [35] of 20.7 µM and a TGI [36] of 32 µM. It also gave a TGI [37] of 29.1 µM, a TGI [39] of 29 µM and a TGI [40] of 24.8 µM. It also gave a TGI [41] of 23.6 µM, a TGI [42] of 26.2 µM and a TGI [43] of 40 µM. The TGI [44] was 38.8 µM, the TGI [45] was 24.4 µM and the TGI [46] was 28.2 µM. The TGI [47] was 33.3 µM, the TGI [48] was 29.1 µM and the TGI [49] was 27.2 µM. The TGI [50] was 23.1 µM, the TGI [51] was 21.6 µM and the TGI [52] was 13.8 µM. It also gave a TGI [54] of 24.6 µM and a TGI [55] of 20 µM.
